Target: T1, CDK2 (Homo sapiens, UniProt P24941)
T1 construct: High-Throughput Measurement of Cellular Endogenous CDK2; endogenous in cells; host or cells: OVCAR3
Assay: Inhibition of CDK2: phospho-Rb (S807/811) HTRF measurement in cells
Type: cell-based
Details: OVCAR3 cells (CDK2 dependent cell line), 24 h compound treatment, read-out: pRb
Description: Phosphorylation of RB protein at S807/811 are measured using HTRF phospho-RB cellular kits (Cat #64RBS807PEG) from Cisbio.
On Day 1, OVCAR3 (CDK2 dependent cell line) cells are seeded into 96-well tissue-culture treated plates at 20,000 cells/well in 200 μL and incubated overnight at 37° C. in CO2 atmosphere. On Day 2, the cells are treated with test compounds at concentrations from 0.3 to 10,000 nM using HP D300 digital dispenser. Twenty-four hours after compound treatment, cell culture media is removed by flicking the plate and tapping the plate against clean paper towel. Immediately 30 μL 1× lysis buffer is supplemented from the kit and the plate is incubated at room temperature on shaker for 30 min. After homogenization by pipetting up and down, 8 μL cell lysate from 96-well cell culture plate is transferred to 384-well small volume white detection plate. 2 μL premixed detection solution is added and the plate was covered with sealer. To prepare the detection solution, d2 conjugated-phospho-RB antibody and Eu-cryptate conjugated phosphor-RB antibody are diluted into detection buffer following manufacturer's instruction. Detection plates are incubated for 4 h at room temperature and read on ClarioStar (BMG Labtech) in TR-FRET mode ([…]). The TR-FRET ratio (665 nM/620 nM) is plotted against the compound concentration and normalized to DMSO controls. Half maximal inhibition concentration (IC50) values are calculated with a four-parameter logistic fit using GraphPad Prism (version 8; La Jolla, CA).

Row | SMILES | IC50 [nM]
1 | Cn1nc(N2CCC(=O)NC2=O)c2ccc(C3CCN(Cc4cccc(S(=O)(=O)N5CCC(Nc6ncc(C(F)(F)F)c(O[C@@H]7CCC[C@@H]7O)n6)CC5)c4)CC3)cc21 (racemic) [Cpd 3, Rac-1-(6-(1-(3-((4-((4-(((1R,2S)-2-hydroxy-cyclopentyl)oxy)-5-(trifluoro-methyl)-pyrimidin-2-yl)amino)piperidin-1-yl)-sulfonyl)benzyl)piperidin-4-yl)-1-methyl-1H-indazol-3-yl)dihydropyrimidine-2,4(1H,3H)-dione] | 28 to 100
2 | Cn1nc(N2CCC(=O)NC2=O)c2ccc(C3CCN(CC4CCN(S(=O)(=O)c5ccc(Nc6ncc(C(F)(F)F)c(O[C@H]7CCC[C@H]7O)n6)cc5)CC4)CC3)cc21 (racemic) [compound 6, Rac-1-(6-(1-((1-((4-((4-(((1S,2R)-2-hydroxy-cyclopentyl)oxy)-5-(trifluoromethyl)-pyrimidin-2-yl)amino)phenyl)-sulfonyl)-piperidin-4-yl)methyl)piperidin-4-yl)-1-methyl-1H-indazol-3-yl)dihydropyrimidine-2,4(1H,3H)-dione] | 100 to 500
3 | Cn1nc(N2CCC(=O)NC2=O)c2ccc(C3CCN(Cc4cccc(S(=O)(=O)N5CCC(Nc6ncc(C(F)(F)F)c(N7CCCCC7)n6)CC5)c4)CC3)cc21 [Cpd 1, 1-(1-methyl-6-(1-(3-((4-((4-(piperidin-1-yl)-5-(trifluoromethyl)pyrimidin-2-yl)amino)-piperidin-1-yl)sulfonyl)benzyl)-piperidin-4-yl)-1H-indazol-3-yl)dihydropyrimidine-2,4(1H,3H)-dione] | 100 to 500
4 | Cn1nc(N2CCC(=O)NC2=O)c2ccc(C3CCN(Cc4cccc(S(=O)(=O)N5CCC(Nc6ncc(C(F)(F)F)c(OC7CCCC7)n6)CC5)c4)CC3)cc21 [Cpd 2, 1-(6-(1-(3-((4-((4-(cyclopentyloxy)-5-(trifluoromethyl)pyrimidin-2-yl)amino)-piperidin-1-yl)sulfonyl)benzyl)-piperidin-4-yl)-1-methyl-1H-indazol-3-yl)dihydro-pyrimidine-2,4(1H,3H)-dione] | 28 to 100
5 | Cn1nc(N2CCC(=O)NC2=O)c2ccc(C3CCN(Cc4cccc(S(=O)(=O)N5CCC(Nc6ncc(C(F)(F)F)c(N7CCCC7)n6)CC5)c4)CC3)cc21 [Cpd 4, 1-(1-methyl-6-(1-(3-((4-((4-(pyrrolidin-1-yl)-5-(trifluoromethyl)pyrimidin-2-yl)amino)-piperidin-1-yl)sulfonyl)benzyl)piperidin-4-yl)-1H-indazol-3-yl)dihydropyrimidine-2,4(1H,3H)-dione] | 100 to 500
6 | Cn1nc(N2CCC(=O)NC2=O)c2ccc(C3CCN(Cc4cccc(S(=O)(=O)N5CCC(Nc6ncc(C(F)(F)F)c(OC7CCC7)n6)CC5)c4)CC3)cc21 [Cpd 5, 1-(6-(1-(3-((4-((4-cyclobutoxy-5-(trifluoro-methyl)pyrimidin-2-yl)amino)piperidin-1-yl)sulfonyl)benzyl)piperidin-4-yl)-1-methyl-1H-indazol-3-yl)dihydropyrimidine-2,4(1H,3H)-dione] | 28 to 100
